Columns and labels:
[1] = human, in vivo, iv, 80 mg/m2
clinical = conditions: human, in vivo, iv, 80 mg/m2
[2] = Paclitaxel plasma pharmacokinetics alone and in combination with RO4929097; conditions: 80 mg/m2 IV

- AUC INF [1]: 4911 ± 1078 ng·h/mL
- Half life [1]: 11.3 ± 2.5 h
- AUC(0-inf) (clinical): 4800 ± 1170 ng·h/mL
- half-life (clinical): 10.3 ± 2.5 h
- Paclitaxel PK alone (day -1) versus in combination with RO4929097 (day 15) [2]: No significant differences
SMILES: CC(=O)O[C@H]1C(=O)[C@@]2(C)[C@H]([C@H](OC(=O)c3ccccc3)[C@]3(O)C[C@H](OC(=O)[C@H](O)[C@@H](NC(=O)c4ccccc4)c4ccccc4)C(C)=C1C3(C)C)[C@]1(OC(C)=O)CO[C@@H]1C[C@@H]2O [Paclitaxel, paclitaxel]
